± gives the uncertainty stated by the source.
Assay: xn = mol fraction of the nth substance listed

## CCCC[P+](CCCC)(CCCC)CCCC.[O-]c1ccccn1 + O=C=O
293 K, 101 kPa, x2 = 0.5475
  viscosity: 474 ± 59 mPa·s

## CCCCC[P+](CC)(CC)CC.O=S(=O)([N-]S(=O)(=O)C(F)(F)F)C(F)(F)F + O=S(=O)([N-]S(=O)(=O)C(F)(F)F)C(F)(F)F.[Li+]
300.3 K, 101.33 kPa, x2 = 0.39
  viscosity: 1100 ± 55 mPa·s
324.2 K, 101.33 kPa, x2 = 0.39
  electrical conductivity: 0.081 ± 0.001 S/m
  viscosity: 200 ± 7 mPa·s
330.2 K, 101.33 kPa, x2 = 0.39
  electrical conductivity: 0.11 ± 0.01 S/m
  viscosity: 150 ± 5 mPa·s
336.3 K, 101.33 kPa, x2 = 0.25
  electrical conductivity: 0.37 ± 0.01 S/m
  viscosity: 42 ± 1 mPa·s
341.2 K, 101.33 kPa, x2 = 0.25
  viscosity: 34 ± 1 mPa·s
348.2 K, 101.33 kPa, x2 = 0.25
  electrical conductivity: 0.52 ± 0.01 S/m
  viscosity: 27 ± 1 mPa·s
361.2 K, 101.33 kPa, x2 = 0.39
  viscosity: 37 ± 1 mPa·s
361.3 K, 101.33 kPa, x2 = 0.39
  electrical conductivity: 0.36 ± 0.01 S/m

## CCCC[n+]1ccn(C)c1.F[P-](F)(F)(F)(F)F + OCC(F)(F)F
278.15 K, 101 kPa, x2 = 0
  viscosity: 1165 ± 51 mPa·s
283.15 K, 101 kPa, x2 = 0
  viscosity: 774 ± 30 mPa·s
288.15 K, 101 kPa, x2 = 0
  viscosity: 533 ± 19 mPa·s
293.15 K, 101 kPa, x2 = 0
  viscosity: 378 ± 12 mPa·s
298.15 K, 101 kPa, x2 = 0
  viscosity: 274 ± 8 mPa·s
303.15 K, 101 kPa, x2 = 0
  viscosity: 203 ± 5 mPa·s
308.15 K, 101 kPa, x2 = 0
  viscosity: 154 ± 4 mPa·s
313.15 K, 101 kPa, x2 = 0
  viscosity: 119 ± 3 mPa·s
318.15 K, 101 kPa, x2 = 0
  viscosity: 93.5 ± 2 mPa·s
323.15 K, 101 kPa, x2 = 0
  viscosity: 74.6 ± 1.5 mPa·s
328.15 K, 101 kPa, x2 = 0
  viscosity: 60.4 ± 1.2 mPa·s
333.15 K, 101 kPa, x2 = 0
  viscosity: 49.5 ± 1 mPa·s

## CCCC[n+]1ccn(C)c1.O=S(=O)([N-]S(=O)(=O)C(F)(F)F)C(F)(F)F + OCC(F)(F)F
283.15 K, 101 kPa, x2 = 0
  viscosity: 107 ± 2 mPa·s

## CC[n+]1ccn(C)c1.O=S(=O)([O-])O + OCC(O)CO
298.15 K, 100 kPa, x1 = 0.33
  viscosity: 320 ± 26 mPa·s
303.15 K, 100 kPa, x1 = 0.33
  viscosity: 232 ± 16 mPa·s
308.15 K, 100 kPa, x1 = 0.33
  viscosity: 168 ± 9 mPa·s
313.15 K, 100 kPa, x1 = 0.33
  viscosity: 127 ± 5 mPa·s
318.15 K, 100 kPa, x1 = 0.33
  viscosity: 99 ± 3 mPa·s
323.15 K, 100 kPa, x1 = 0.33
  viscosity: 78 ± 2 mPa·s

## Cn1cc[nH+]c1.[Cl-] + OCC(O)CO
298.15 K, 100 kPa, x1 = 0.333
  viscosity: 126.1 ± 2.8 mPa·s
313.15 K, 100 kPa, x1 = 0.333
  viscosity: 70.3 ± 0.8 mPa·s
333.15 K, 100 kPa, x1 = 0.333
  viscosity: 35 ± 0.4 mPa·s

## CC[n+]1ccn(C)c1.O=S(=O)([O-])O + OCCO
303.15 K, 100 kPa, x1 = 0.125
  viscosity: 15 ± 1 mPa·s
303.15 K, 100 kPa, x1 = 0.5
  viscosity: 76 ± 4 mPa·s
308.15 K, 100 kPa, x1 = 0.25
  viscosity: 24 ± 1 mPa·s
313.15 K, 100 kPa, x1 = 0.143
  viscosity: 12 ± 1 mPa·s
313.15 K, 100 kPa, x1 = 0.33
  viscosity: 30 ± 1 mPa·s
318.15 K, 100 kPa, x1 = 0.167
  viscosity: 12 ± 1 mPa·s
323.15 K, 100 kPa, x1 = 0.33
  viscosity: 21 ± 1 mPa·s

## CCCC[n+]1ccn(C)c1.F[P-](F)(F)(F)(F)F + OCCOCCOCCOCCO
298.15 K, 101 kPa, x2 = 0
  viscosity: 254 ± 15 mPa·s

## CCCC[n+]1ccn(C)c1.O=S(=O)([N-]S(=O)(=O)C(F)(F)F)C(F)(F)F + OCCOCCOCCOCCO
298.15 K, 101 kPa, x2 = 0
  viscosity: 45.3 ± 1.1 mPa·s

## CCCC[n+]1ccn(C)c1.F[P-](F)(F)(F)(F)F + OC[C@H]1O[C@H](O[C@H]2[C@H](O)[C@@H](O)C(O)O[C@@H]2CO)[C@H](O)[C@@H](O)[C@@H]1O + O
293.15 K, 100 kPa, x1 = 0.0001838, x2 = 0
  viscosity: 1.011 ± 0.041 mPa·s
293.15 K, 100 kPa, x1 = 0.0005385, x2 = 0
  viscosity: 1.025 ± 0.042 mPa·s
293.15 K, 100 kPa, x1 = 0.0008966, x2 = 0
  viscosity: 1.038 ± 0.043 mPa·s
293.15 K, 100 kPa, x1 = 0.001262, x2 = 0
  viscosity: 1.041 ± 0.043 mPa·s
298.15 K, 100 kPa, x1 = 0.0001838, x2 = 0
  viscosity: 0.905 ± 0.037 mPa·s
298.15 K, 100 kPa, x1 = 0.0005385, x2 = 0
  viscosity: 0.916 ± 0.038 mPa·s
298.15 K, 100 kPa, x1 = 0.0008966, x2 = 0
  viscosity: 0.922 ± 0.038 mPa·s
298.15 K, 100 kPa, x1 = 0.001262, x2 = 0
  viscosity: 0.932 ± 0.038 mPa·s
303.15 K, 100 kPa, x1 = 0.0001838, x2 = 0
  viscosity: 0.821 ± 0.034 mPa·s
303.15 K, 100 kPa, x1 = 0.0005385, x2 = 0
  viscosity: 0.826 ± 0.034 mPa·s
303.15 K, 100 kPa, x1 = 0.0008966, x2 = 0
  viscosity: 0.83 ± 0.034 mPa·s
303.15 K, 100 kPa, x1 = 0.001262, x2 = 0
  viscosity: 0.843 ± 0.035 mPa·s
308.15 K, 100 kPa, x1 = 0.0001838, x2 = 0
  viscosity: 0.742 ± 0.03 mPa·s
308.15 K, 100 kPa, x1 = 0.0005385, x2 = 0
  viscosity: 0.744 ± 0.031 mPa·s
308.15 K, 100 kPa, x1 = 0.0008966, x2 = 0
  viscosity: 0.75 ± 0.031 mPa·s
308.15 K, 100 kPa, x1 = 0.001262, x2 = 0
  viscosity: 0.761 ± 0.031 mPa·s
313.15 K, 100 kPa, x1 = 0.0001838, x2 = 0
  viscosity: 0.661 ± 0.027 mPa·s
313.15 K, 100 kPa, x1 = 0.0005385, x2 = 0
  viscosity: 0.674 ± 0.028 mPa·s
313.15 K, 100 kPa, x1 = 0.0008966, x2 = 0
  viscosity: 0.677 ± 0.028 mPa·s
313.15 K, 100 kPa, x1 = 0.001262, x2 = 0
  viscosity: 0.683 ± 0.028 mPa·s

## Cn1cc[nH+]c1.[Cl-] + [Cl][Al]([Cl])[Cl]
303.15 K, 101 kPa, x2 = 0.667
  electrical conductivity: 0.709 ± 0.007 S/m
  viscosity: 32.79 ± 0.48 mPa·s
313.15 K, 101 kPa, x2 = 0.643
  electrical conductivity: 0.782 ± 0.008 S/m
  viscosity: 31.87 ± 0.44 mPa·s

## CCCC[n+]1ccn(C)c1.F[P-](F)(F)(F)(F)F + c1ccccc1
313.2 K, 100 kPa, x2 = 0.6008
  viscosity: 7.7 ± 0.4 mPa·s

## CCCC[n+]1ccn(C)c1.F[P-](F)(F)(F)(F)F + c1ccncc1
298.15 K, 101 kPa, x2 = 0.4915
  electrical conductivity: 0.819 ± 0.098 S/m
  viscosity: 21.8 ± 2.2 mPa·s

## CCCC[n+]1ccn(C)c1.O=S(=O)([N-]S(=O)(=O)C(F)(F)F)C(F)(F)F + c1ccsc1
328.15 K, 100 kPa, x2 = 0
  viscosity: 17.98 ± 0.96 mPa·s

From the CheMixHub ionic liquid set
